Like-named read-outs stand apart in the source and are kept apart here.
Experiments:
[1] = tested on: CX-1 Human Colon Carcinoma; test: Clonogenic dye screening assay, CX-1 cells (IC50); type: cell-based; conditions: for IC50: Homo sapiens; for Selectivity: Table 1, cell line not given, values equal CV/CX of Table II; for CV/CX (selectivity, kill ratio): ratio of IC50 in normal CV-1 line to IC50 in carcinoma CX-1 line
In short: (§1)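 Cells seeded 16-30 h ahead (2000 CX-1 or 1000 CV-1 per well), exposed to serially diluted dyes for 3 h at 37 °C, rinsed three times, then grown into colonies. Eight-point curves spanned 0.32-0.0015 μg/mL (CX-1) and 3.2-0.025 μg/mL (CV-1). IC50 is the concentration killing 50% of cells.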

[2] = Clonogenic dye screening assay, CX-1 cells (IC50); type: cell-based, human; conditions: Homo sapiens, CX-1, Table XII column 5; unit from method; read-out: CV (Table XII)
In short: as §1

[3] = tested on: CV-1 Normal Monkey Kidney Epithelial; test: Clonogenic dye screening assay, CV-1 cells (IC50); type: cell-based, African green monkey; conditions: Primates
Excerpt: CX-1 is a cancerous human colon adenocarcinoma cell line. CV-1 is a non-cancerous control, which is a kidney epithelial cell line from an African green monkey. IC50 is the dye concentration at which 50% of the cells are killed. Selectivity or kill ratio is defined as the ratio of […] at IC50 for both CX-1 and CV-1. A ratio with a high number indicates a high selectivity.
The dyes were screened in two cell lines. CX-1 is a human colon adenocarcinoma cell line. CV-1 is a kidney epithelial cell line from an African green monkey. CV-1 was used as a reference because no normal human epithelial cell line is available for clonogenic assay.
In the initial screen, dyes were examined at six different concentrations to generate a dose response curve. An IC50 value, the concentration at which 50% of the cells are killed, was then calculated. Initially, a dye concentration of 1.0 μg/mL was the highest examined for the CX-1 cell line and 0.005 μg/mL was the lower limit. The corresponding limits on the CV-1 cell line were […].
The screening procedure used a response curve that was determined from eight dye concentrations. The upper and lower limits of CX-1 were 0.32 and 0.0015 μg/mL, respectively, and the corresponding revised limits on CV-1 were 3.2 and 0.025 μg/mL. The screening results were reported by assigning an IC50 value to each dye for the CV-1 and CX-1 cell lines. These values will be referred to herein simply as CV and CX. The most desirable result would be to have a dye that was highly toxic to carcinoma cells but nontoxic to ‘normal’ cells. One measure of this type of selectivity is the ratio of the IC50's in the normal cell line to that in the carcinoma line, CV/CX.
Compounds are screened via an in vitro assay. CV-1 and CX-1 cells are seeded into separate assay plates. The plates are treated with varying concentrations of test compounds, rinsed, and colonies allowed to grow. IC50's are determined and drugs evaluated based on their selectivity and toxicity. Assay Steps: • I. Seeding Cells • II. Weighing • III. Preparation of Solution • IV. Treatment • V. Rinsing and Feeding • VI. Fixing • VII. IC50 Determination I. Seeding Cells
The cells should be seeded 16-30 hours before treatment. The media for CV-1 cells is DME+5% calf serum +5% Nuserum. The media for CX-1 cells is RPMI/DME (50/50)+5% calf serum +5% Nuserum.
(c) number of cells based on 2000 CX-1 cells/well and 1000 CV-1 cells/well. NOTE: Always make enough cell suspension for 1 extra plate to allow for volume loss during transfers.
• (a) For CV-1: 256 ug/ml-256 ul of 1 mg/ml stock +744 ul DMSO • (b) For CX-1: 25.6 ug/ml-100 ul of 256 ug/ml+900 ul DMSO IV. Treatment • 1. Each plate is treated with 4 test compounds, one positive control and one negative control. • 2. Serial dilutions of the compounds are made in the following way:
2 multi-well pipetters are used. One is set for 10 ul and one for 200 ul. Each is equipped with 6 tips spaced such that they fit into the 6 rows of a plate. 390 ul of media is added to the first column of each plate. 10 ul each of 4 compound solutions, a positive and a negative control are taken up and put into the first column of wells. The 200 ul pipetter is then placed in the same wells, pipetted up and down 3 times and two 200 ul aliquots are moved to the next column of wells. This column is pipetted up and down 3 times and 400 ul moved to column 3, etc. The final 400 ul excess from column 8 is discarded.
• 3. Label the plates along the front, each row −1 compound. • 4. Incubate the plates at 37° C. for 3 hrs. V. Rinsing • 1. Prepare several bottles of CX-1 and CV-1 media. • 2. Check for precipitate in first column of each plate and note. • 3. Starting with the plates treated first, rinse several plates at a time by aspirating the treatments and refilling each well with 0.5-1.0 ml of the rinse media. Aspirate and refill 2 more times for a total of 3 rinses. • 4.

[4] = Electrochemical reduction potential (Er) measurement, SHACV / fast scan CV; type: physicochemical
Excerpt: In the practice of this invention the reduction potential of a given dye may be determined in various ways. If available, the published reduction potential may be employed. Reduction potentials for numerous cyanine and merocyanine dyes are available in the literature. (See J. Lenhard, Journal of Imaging Science, vol. 30 pp. 27-35 (1986).) A large amount of data has been generated on the reduction and oxidation potentials of these dyes from their use in photography and related arts where they are employed, inter alia, as spectral sensitizers.
If a published reduction potential is not available, suitable techniques for measuring reduction potential are available. Accurate electrochemical oxidation and reduction potentials for these organic dyes can be measured by the techniques of fast scan cyclic voltommetry (CV) or second harmonic ac voltommetry (SHACV). SHACV measurements are made as described by Lenhard in the Journal of Imaging Science volume 30, 1986 pp 27-35 using a commercially available (Princeton Applied Research Corp.) potentiostat in conjunction with voltage programmer, a conventional lock-in amplifier, and a low-distortion oscillator. The SHACV method utilizes an ac voltage waveform (of a frequency greater than or equal to 400 hz) that is superimposed on a DC potential ramp. On the other hand, the measurement of the oxidation or reduction potential by the CV method utilizes a (high frequency) triangular voltage waveform. The general procedures for measuring potentials by this method have been described by Wightman in Analytical Chemistry, 1984, vol. 56, pp524 and Journal of Physical Chemistry, 1984, vol. 88, pp3915. The specific application of this technique to the measurement of cyanine dye potentials has been reported by Nomura and Okazaki, Chemistry Letters, 1990, pp2231-2234. Commercial instrumentation especially designed for fast scan (i.e., high frequency) CV is available. It is noteworthy that because of the complicated nature of many of the cyanine dyes, electrochemical reactions, conventional slow scan cyclic voltommetry or polarography methods (as described by R. Large in Photographic Sensitivity, R. Cox, ed., Academic Press, New York, 1973, pp 241-263) provide only approximate values for oxidation and reduction potentials. Errors as large as 0.4 V from the true potential can be obtained by using slow scan CV or electrochemical methods.
The procedure for measuring the oxidation or reduction potential by the SHACV or fast scan CV method utilizes solutions of acetonitrile (or similar nonaqueous solvent) with added tetrabutylammonium tetrafluoroborate TBABF4 at a concentration of 0.1 M and ca. 5×10^−4 M of the cyanine, oxonol, or merocyanine dye. For measurement of the reduction potential the solution must be deaerated with argon prior to examination. The preferred working electrode is a Pt disk (ca. 0.02 cm^2) that is polished with 1 μm diamond paste, rinsed with water, and dried before each experiment. The reference electrode is a NaCl saturated calomel electrode. The cell and reference electrodes are maintained at 22 C. A value of 40 mV is added to the measured potentials to convert the number to that corresponding to an Ag/AgCl reference electrode. If a solvent other than acetonitrile is used then the measured potential must be referenced to a standard organic redox system such as ferrocene and corrected accordingly.
SHACV (Second Harmonic Alternating Current Voltametry) measurements are made as described by Lenhard in the Journal of Imaging Science volume 30, 1986 pp 27-35 using a commercially available (Princeton Applied Research Corp.) potentiostat in conjunction with voltage programmer, a conventional lock-in amplifier, and a low-distortion oscillator. The SHACV method utilizes an ac voltage waveform (of a frequency greater than or equal to 400 hz) that is superimposed on a DC potential ramp. […]

[5] = Dye solubility (water, 5% dextrose/water); type: physicochemical
Excerpt: Dye solubility is also a factor, since compounds having low water solubility are difficult or impossible to include in in vivo testing.
S13 is one of the simplest cyanine dye structures possible (in this nomenclature the S refers to the sulfur, the 1 indicates one carbon on the nitrogen and 3 indicates a 3 methine chain). […] A synthetic challenge will be to enhance the activity/selectivity of this dye and retain its good water solubility. [drawing 23]

[6] = tested on: EJ Human Bladder Carcinoma; test: Initial in vitro screening, bladder carcinoma cells; type: cell-based; conditions: cell line 5, EJ human bladder carcinoma; unit from method; read-out: IC50 (concentration at which 50% of the cells of the culture are killed)
Excerpt: (§2) Other publications have shown that some cyanine dyes show anti-cancer activity. See I. Minami, Y. Kozai, H. Nomura and T. Tashiro, Chem. Phar. Bull. 30:3106 (1982); W. M. Anderson, D. L. Delinick, L. Benninger, J. M. Wood, S. T. Smiley and L. B. Chen, Biochemical Pharmacology, 45:691 (1993). […] (See L. G. S. Brooker, L. A. Sweet, Science, 105, (1947) and I. Minami, Y. Kozai, H. Nomura, T. Tashiro, Chem. Pharm. Bull., 30,3106 (1982) on chemotherapeutic investigations of cyanine dyes.) Table I lists initial in vitro screening results in various cell lines and a comparison with Adriamycin, which is a widely used chemotherapeutic agent.
(§3) Description of Cell Line • 1. CV-1 Normal Monkey Kidney Epithelial (control) • 2. CX-1 Human Colon Carcinoma • 3. Human Breast Carcinoma • 4. Human Pancreatic Carcinoma • 5. Human Bladder Carcinoma • 6. Human Lung Carcinoma • 7. Human Squamous Cell Carcinoma • 8. Human Adrenal Cortex Carcinoma

[7] = tested on: CCL 185 Human Lung Carcinoma; test: Initial in vitro screening, lung carcinoma cells; type: cell-based; conditions: cell line 6, CCL 185 human lung carcinoma; unit from method; read-out: IC50 (concentration at which 50% of the cells of the culture are killed)
Excerpt: as §2, §3

[8] = tested on: SCC 68 Human Squamous Cell Carcinoma; test: Initial in vitro screening, squamous cell carcinoma cells; type: cell-based; conditions: cell line 7, SCC 68 human squamous cell carcinoma; unit from method; read-out: IC50 (concentration at which 50% of the cells of the culture are killed)
Excerpt: as §2, §3

[9] = tested on: MCF-7 Human Breast Carcinoma; test: Initial in vitro screening, breast carcinoma cells; type: cell-based; conditions: MCF7; cell line 3, MCF-7 human breast carcinoma; unit from method; read-out: IC50 (concentration at which 50% of the cells of the culture are killed)
Excerpt: as §2, §3

[10] = tested on: CCL 105 Human Adrenal Cortex Carcinoma; test: Initial in vitro screening, adrenal cortex carcinoma cells; type: cell-based; conditions: cell line 8, CCL 105 human adrenal cortex carcinoma; unit from method; read-out: IC50 (concentration at which 50% of the cells of the culture are killed)
Excerpt: as §2, §3

[11] = tested on: CRL 1420 Human Pancreatic Carcinoma; test: Initial in vitro screening, pancreatic carcinoma cells; type: cell-based; conditions: cell line 4, CRL 1420 human pancreatic carcinoma; unit from method; read-out: IC50 (concentration at which 50% of the cells of the culture are killed)
Excerpt: as §2, §3

[12] = CX-1, 3 hrs treatment, colonies after 7-10 days, unit from method, read-out: CX (IC50 in the CX-1 cell line)
[13] = CV-1, 3 hrs treatment, colonies after 7-10 days, unit from method, read-out: CV (IC50 in the CV-1 cell line)

## CCN1/C(=C/C=C/c2sc3ccccc3[n+]2CC)Oc2ccccc21 [Dye D-104]
[1]; [12]
  IC50: 0.005 µg/mL
[1]; CX-1, Table XVI, unsymmetrical dyes, CX-1 cells, read-out: CX
  IC50: 0.005 µg/mL
[1]
  Selectivity: 200
  CV/CX (selectivity, kill ratio): 200
[1]; Table XVI, selectivity ratio of IC50 values
  CV/CX: 200.0
[2]
  IC50: 0.005 µg/mL
[3]; [13]
  IC50: 1 µg/mL
[3]; CV-1, Table XVI, unsymmetrical dyes, CV-1 cells, read-out: CV
  IC50: 1 µg/mL

## CCN1/C(=c2\s/c(=c3\s/c(=C/c4sc5ccccc5[n+]4CC)n(CC)c3=O)n(CC)c2=O)Sc2ccccc21 [Dye D-112]
[1]; [12]
  IC50: 0.01 µg/mL
[1]
  Selectivity: 900
  CV/CX (selectivity, kill ratio): 900
[3]; [13]
  IC50: 9 µg/mL
[4]
  ER(v), electrochemical reduction potential: −1.1 V

## CCN1/C(=C/C=C/c2oc3ccc(-c4ccccc4)cc3[n+]2CC)Sc2ccccc21 [Dye D-131]
[1]; [12]
  IC50: < 0.005 µg/mL
[2]
  IC50: < 0.005 µg/mL
[3]; [13]
  IC50: 0.3 µg/mL

## CN1/C(=C/C=C/c2sc3cc4ccccc4cc3[n+]2C)Sc2cc3ccccc3cc21.Cc1ccc(S(=O)(=O)[O-])cc1 [Dye D-140]
[1]; 3 hrs treatment, colonies after 7-10 days, unit from method b117-118
  CX (IC50 in the CX-1 cell line): <0.005 µg/mL
[1]
  CV/CX (selectivity, kill ratio): 60
[5]; among compounds with enhanced activity
  solubility: most desirably soluble

## CC[n+]1c(/C=C/C(C(=O)c2ccccc2)=P(c2ccccc2)(c2ccccc2)c2ccccc2)sc2ccccc21 [Dye D-148]
[1]; [12]
  IC50: 0.04 µg/mL
[1]
  Selectivity: 250
  CV/CX (selectivity, kill ratio): 250
[3]; [13]
  IC50: > 10 µg/mL
[4]
  ER(v), electrochemical reduction potential: −1.15 V

## CCN1/C(=C/N=N/c2sc3ccccc3[n+]2CC)Sc2ccccc21 [Dye O-1, reference compound]
[6]
  IC50: 0.3 µg/mL
[1]; CX-1, cell line 2, CX-1, unit from method, read-out: IC50 (concentration at which 50% of the cells of the culture are killed)
  IC50: 0.5 µg/mL
[7]
  IC50: 0.8 µg/mL
[8]
  IC50: 0.3 µg/mL
[9]
  IC50: 0.3 µg/mL
[10]
  IC50: 0.3 µg/mL
[3]; CV-1, cell line 1, CV-1 normal control, unit from method, read-out: IC50 (concentration at which 50% of the cells of the culture are killed)
  IC50: 7.5 µg/mL
[11]
  IC50: 0.75 µg/mL

## CN1/C(=C/C=C/c2sc3ccccc3[n+]2C)Sc2ccccc21 [Dye S13]
[5]; 5% dextrose/water
  solubility in 5% dextrose/water solutions: good solubility
